The target in experiment [1] is T1, GTPase KRas (Homo sapiens, UniProt P01116, G12D). Kind of experiment: Inhibition of KRAS G12D mutant (unknown origin) assessed as inhibition of SOS1 mediated nucleotide exchange of bodipy-GDP for GppNHp incubated for 4 hrs by fluorescence based analysis.
Experiment [2] concerns the target GTPase KRas (Homo sapiens, UniProt P01116, G12V). Kind of experiment: Inhibition of KRAS G12V mutant (unknown origin) assessed as inhibition of SOS1 mediated nucleotide exchange of bodipy-GDP for GppNHp incubated for 3 hrs by fluorescence based analysis.
Experiment [3] addresses T1, GTPase KRas. Kind of experiment: Inhibition of KRAS G12D mutant in human HPAF-II cells assessed as reduction in ERK phosphorylation by Western blot analysis. It is filed as cell-based.

Molecules are shown by their SMILES. A value given as a limit tells only on which side of the number the result lay.

T1 sequence (P01116 whole entry G12D): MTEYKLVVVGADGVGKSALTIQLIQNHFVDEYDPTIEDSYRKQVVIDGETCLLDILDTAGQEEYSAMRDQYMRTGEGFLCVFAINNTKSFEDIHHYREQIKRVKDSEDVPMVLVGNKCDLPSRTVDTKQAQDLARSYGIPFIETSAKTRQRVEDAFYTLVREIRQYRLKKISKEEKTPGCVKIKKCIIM
Chain of GTPase KRas (Homo sapiens, UniProt P01116, G12V) (P01116 whole entry G12V): as the sequence (P01116 whole entry G12D) above, with D12V counted along it

In general, IC50 refers to the point on the concentration scale where inhibition reaches its midpoint. `Cc1cc2c(nc(O[C@@H](C)[C@H]3CCCN3C)c3c(=O)ccn([C@@H]4[C@@H]5CN[C@H]4C5)c32)c(F)c1-c1cccc2c1C(C#N)CCC2` (some centres not stated): the IC50 in experiment [1], in experiment [2] and in experiment [3] was at most 0.1 µM each time.

For `C[C@H](Oc1nc2c(F)c(-c3cc(O)cc4ccc(F)cc34)c(CCC#N)cc2c2c1NC(=O)CN2C1C2CNC1C2)[C@@H]1CCCN1C` (some centres not stated), the IC50 in experiment [1], in experiment [2] and in experiment [3] was at most 0.1 µM throughout.

On to `C[C@H](Oc1nc2c(F)c(-c3c[nH]c4ccccc34)c(CCC#N)cc2c2c1NC(=O)CN2C1C2CNC1C2)[C@@H]1CCCN1C` (some centres not stated), for which the IC50 in experiment [1], in experiment [2] and in experiment [3] was at most 0.1 µM in each case.

Regarding `C[C@@H](Oc1nc2c(F)c(-c3cc(O)cc4ccccc34)c(CCC#N)cc2c2c1CCCN2C1C2CNC1C2)[C@H]1CCCN1C` (some centres not stated), the IC50 in experiment [1], in experiment [2] and in experiment [3] was at most 0.1 µM throughout.

Regarding `C[C@H](Oc1nc2c(F)c(-c3cccc(Cl)c3Cl)c(CCC#N)cc2c2c1c(=O)c(N1CCCC1=O)cn2[C@@H]1[C@@H]2CN[C@H]1C2)[C@H]1CCCN1C`, the IC50 in experiment [1] and in experiment [2] was at most 0.1 µM in each case.

With `C[C@H](Oc1nc2c(F)c(-c3cccc4ccc(F)cc34)c(CCC#N)cc2c2c1NC(=O)CN2C1C2CNC1C2)[C@@H]1CCCN1C` (some centres not stated), the IC50 in experiment [1], in experiment [2] and in experiment [3] was at most 0.1 µM each time.
